In brackets after ≈: the same amount, converted by molar mass. Entries after “also recorded” stand apart in the source; their conditions may differ.
What was measured:
[1] = tested on: MG-63; assay: cell growth inhibition, MG-63 osteosarcoma; type: cell-based; details: Homo sapiens, MG-63, 72 h; 3 days, Trypan Blue viable cell count
Experimental: (§1) The source of the cancer cell lines were: HL-60, HT-29, and BT-20, from American Type Culture Collection, Rockville, Maryland; A-1 from Dr. M. H. Freedman, MG-63, from Dr. M. Hurley, and human fibroblast from Dr. R. Zeff. Cells were grown in the culture treated with or without various compounds for 3 days. Cells (except BT-20) were then recovered and treated with Trypan Blue and the number of viable cells counted. For BT-20 cells, a new rapid and simple method using Alamar Blue Assay was used, as described by S. A. Ahmed et al., J. Immunol. Meth., 170, 211 (1994). The symbol i on the Table indicates "not
(§2) As shown on Table 3, several compounds of formula (I) were tested for their ability to inhibit the growth of human cancer cells including promyelocytic leukemia HL-60 cells (S. J. Collins et al., Blood, 70, 1233 (1987)); acute lymphocytic leukemia A-1 cells, (S. Kamel-Reid et al., Leukemia, 6, 8 (1992)); human osteosarcoma MG-63, (A. Pirskanen et al., J. Bone and Mineral Res., 1635 (1994)); human breast carcinoma BT-20 (G. G. Castles et al., Cancer Res., 58, 5934 (1992)); and human colon adenocarcinoma HT-29 cells (R. Garcia et al., Oncogene, 6, 1983 (1991)).

[2] = tested on: BT-20; assay: cell growth inhibition, BT-20 breast carcinoma (Alamar Blue); type: cell-based; details: Homo sapiens, BT-20, 72 h, 3 days, Alamar Blue Assay
Experimental: as §1, §2

[3] = biological target: T1, p56^lck (Homo sapiens, UniProt P06239); assay: kinase assay, p56lck; type: biochemical; details: poly [Glu,Tyr](4:1) substrate
T1 construct: purchased Upstate Biotechnology Inc
Experimental: (§3) Purified p60^c-scr and Src-family kinases p56^lck, p56^lyn, and p55^fyn were obtained from Upstate Biotechnology Inc. Kinase assays were performed as described by A. Gezit, J. Med.

[4] = tested on: HT-29 cells; assay: cell growth inhibition, HT-29 colon adenocarcinoma; type: cell-based; details: Homo sapiens, HT-29, 72 h; 3 days, Trypan Blue viable cell count
Experimental: as §1, §2

[5] = biological target: p55^fyn; assay: kinase assay, p55fyn; type: biochemical; details: poly [Glu,Tyr](4:1) substrate
Experimental: as §3

[6] = biological target: T2, p56^lyn (Homo sapiens, UniProt P07948); assay: kinase assay, p56lyn; type: biochemical; details: poly [Glu,Tyr](4:1) substrate
T2 construct: purchased Upstate Biotechnology Inc
Experimental: as §3

[7] = tested on: HL-60 cells; assay: cell growth inhibition, HL-60 promyelocytic leukemia; type: cell-based; details: Homo sapiens, HL-60, 72 h; 3 days, Trypan Blue viable cell count
Experimental: as §1, §2

[8] = biological target: T3, p60^c-src (Homo sapiens, UniProt P12931); assay: kinase assay, purified p60c-src, poly [Glu,Tyr](4:1) substrate; type: biochemical; details: for IC50, p60^c-src: purified kinase, poly [Glu,Tyr](4:1) substrate; for potency relative to the hydroxylated parent compound (in words): hydroxymethyl versus hydroxy N-phenyl analogue
T3 construct: purchased Upstate Biotechnology Inc
Experimental: as §3

[9] = tested on: A-1 cells; assay: cell growth inhibition, A-1 acute lymphocytic leukemia; type: cell-based; details: Homo sapiens, 72 h; 3 days, Trypan Blue viable cell count
Experimental: as §1

[10] = tested on: Human fibroblasts cells; assay: cell growth inhibition, human fibroblasts; type: cell-based; details: for IC50: Homo sapiens, Fibroblast, 72 h, 3 days, Trypan Blue viable cell count
Experimental: as §1

[11] = tested on: human cancer cells (HL-60, A-1, MG-63, BT-20, HT-29); assay: inhibition of growth of human cancer cell lines, overall comparison; type: cell-based; details: 9TA, 18TA compared with e.g. 9TO, 18TO
Experimental: as §1, §2

T1 sequence (P06239 whole entry, species assumed): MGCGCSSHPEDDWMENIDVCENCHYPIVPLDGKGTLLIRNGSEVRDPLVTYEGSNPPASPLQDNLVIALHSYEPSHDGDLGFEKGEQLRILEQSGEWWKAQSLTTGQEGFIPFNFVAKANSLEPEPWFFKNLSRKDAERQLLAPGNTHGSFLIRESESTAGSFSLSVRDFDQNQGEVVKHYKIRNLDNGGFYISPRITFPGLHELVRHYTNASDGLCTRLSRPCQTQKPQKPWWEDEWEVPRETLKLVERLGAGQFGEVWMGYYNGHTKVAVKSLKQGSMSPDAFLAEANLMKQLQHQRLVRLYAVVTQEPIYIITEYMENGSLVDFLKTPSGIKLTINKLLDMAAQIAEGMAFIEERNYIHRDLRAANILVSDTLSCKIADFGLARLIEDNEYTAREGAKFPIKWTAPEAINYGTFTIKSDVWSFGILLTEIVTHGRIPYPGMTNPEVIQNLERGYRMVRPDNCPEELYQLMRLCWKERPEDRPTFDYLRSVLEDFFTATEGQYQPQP
T2 sequence (P07948 whole entry, species assumed): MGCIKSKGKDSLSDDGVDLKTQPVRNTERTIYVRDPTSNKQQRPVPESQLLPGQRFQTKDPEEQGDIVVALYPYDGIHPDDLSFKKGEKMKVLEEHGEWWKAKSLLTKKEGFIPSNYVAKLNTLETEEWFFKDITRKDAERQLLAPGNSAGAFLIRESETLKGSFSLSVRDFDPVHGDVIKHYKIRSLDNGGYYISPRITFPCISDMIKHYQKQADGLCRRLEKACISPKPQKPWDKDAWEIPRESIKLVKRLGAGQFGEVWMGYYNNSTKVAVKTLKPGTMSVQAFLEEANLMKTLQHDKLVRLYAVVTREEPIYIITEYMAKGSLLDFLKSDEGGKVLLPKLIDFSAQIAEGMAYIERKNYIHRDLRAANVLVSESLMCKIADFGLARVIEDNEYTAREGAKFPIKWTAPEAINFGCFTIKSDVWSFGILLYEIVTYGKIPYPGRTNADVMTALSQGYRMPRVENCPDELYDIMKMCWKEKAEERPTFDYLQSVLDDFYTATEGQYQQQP
T3 sequence (P12931 whole entry): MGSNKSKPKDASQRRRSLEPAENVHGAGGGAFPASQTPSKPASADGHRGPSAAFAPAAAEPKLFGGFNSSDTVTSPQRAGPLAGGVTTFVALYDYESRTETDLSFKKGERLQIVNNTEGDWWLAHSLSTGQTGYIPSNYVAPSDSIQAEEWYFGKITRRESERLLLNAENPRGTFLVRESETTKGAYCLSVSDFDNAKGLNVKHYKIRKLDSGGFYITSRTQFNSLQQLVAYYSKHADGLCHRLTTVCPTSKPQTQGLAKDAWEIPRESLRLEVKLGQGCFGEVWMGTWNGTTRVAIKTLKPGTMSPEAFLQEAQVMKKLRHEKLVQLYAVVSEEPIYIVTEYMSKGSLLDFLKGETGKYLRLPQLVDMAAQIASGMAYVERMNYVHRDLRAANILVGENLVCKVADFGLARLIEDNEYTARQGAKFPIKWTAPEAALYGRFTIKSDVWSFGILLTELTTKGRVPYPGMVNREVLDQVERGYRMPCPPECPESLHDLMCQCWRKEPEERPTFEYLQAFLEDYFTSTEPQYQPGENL

Row | SMILES | IC50 [2] [µg/mL] | IC50, p56^lck [3] [µg/mL] | IC50 [4] [µg/mL] | IC50, p55^fyn [5] [µg/mL] | IC50 [7] [µg/mL] | IC50, p60^c-src [8] [µg/mL] | IC50 [9] [µg/mL] | other results
1 | N=c1oc2c(O)cccc2cc1C(=O)Nc1ccc(O)cc1 [Compound 9T] | 7 (≈ 23.6 µM) | 0.62 (≈ 2.09 µM) | 4 (≈ 13.5 µM) | > 20 | 2.5 (≈ 8.44 µM) |  |  | IC50 [1]: 1.25 µg/mL (≈ 4.22 µM); IC50, p56^lyn [6]: 20 µg/mL (≈ 67.5 µM)
2 | COc1ccc2cc(C(=O)Nc3ccc(O)cc3)c(=N)oc2c1 [Compound 15T] | > 20 |  |  |  | 7.5 (≈ 24.2 µM) |  |  | fold less active than 8T ([8]; p60^c-src, versus 8T): 8 fold
3 | N=c1oc2c(O)c(O)ccc2cc1C(=O)Nc1ccc(O)cc1 [Compound 18T] | 7.2 (≈ 23.1 µM) | 5 (≈ 16 µM) | 20 (≈ 64 µM) | > 20 | 3.5 (≈ 11.2 µM) | 3.6 (≈ 11.5 µM) | 8 (≈ 25.6 µM) | 
4 | COc1ccc2oc(=N)c(C(=O)Nc3ccc(O)cc3)cc2c1 [Compound 16T] | > 20 | 7.5 (≈ 24.2 µM) |  |  | 5 (≈ 16.1 µM) | 12.5 (≈ 40.3 µM) |  | fold less active than 7T ([8]; p60^c-src, versus 7T): 4 fold
5 | CC(=O)c1cccc(NC(=O)c2cc3ccc(O)c(O)c3oc2=N)c1 [Compound 18ACTA] |  |  |  |  |  | 3 (≈ 8.87 µM) | 15 (≈ 44.3 µM) | IC50, p56^lyn [6]: 10 µg/mL (≈ 29.6 µM)
6 | N=c1oc2cc(O)ccc2cc1C(=O)Nc1cccc(O)c1 [Compound 8TA] |  |  |  |  | 3.3 (≈ 11.1 µM) | 9 (≈ 30.4 µM) |  | IC50 [6]: > 33.8 µM
7 | COc1cccc2cc(C(=O)Nc3cccc(O)c3)c(=N)oc12 [Compound 32TA] |  |  |  |  |  | 1.3 (≈ 4.19 µM) | 12 (≈ 38.7 µM) | 
8 | N=c1oc2ccccc2cc1C(=O)Nc1cccc(O)c1 [Compound 25TA] |  |  |  |  |  | 10 (≈ 35.7 µM) |  | 
9 | N=c1oc2cc(O)cc(O)c2cc1C(=O)Nc1ccccc1O [Compound 19TO] | > 20 |  | 0.625 (≈ 2 µM) |  | 5 (≈ 16 µM) | 2.1 (≈ 6.72 µM) | 2.5 (≈ 8.01 µM) | IC50 [1]: 2.5 µg/mL (≈ 8.01 µM); inhibition of growth of human fibroblast cells (in words) [10]: not effective; IC50 [10]: > 20 µg/mL
10 | N=c1oc2c(O)cccc2cc1C(=O)Nc1ccccc1CO [Compound 9TOBA] |  |  |  |  | 6 (≈ 19.3 µM) | 1.8 (≈ 5.8 µM) |  | potency relative to the hydroxylated parent compound (in words) ([8]; p60^c-src): much more potent; IC50 [1]: 5 µg/mL (≈ 16.1 µM)
11 | N=c1oc2cc(O)cc(O)c2cc1C(=O)Nc1cccc(O)c1 [Compound 19TA] | > 20 | 3.75 (≈ 12 µM) | 10 (≈ 32 µM) |  | 2.5 (≈ 8.01 µM) | 1.25 (≈ 4 µM) | 15 (≈ 48 µM) | IC50 [1]: 5 µg/mL (≈ 16 µM); IC50, p56^lyn [6]: 5 µg/mL (≈ 16 µM); inhibition of growth of human fibroblast cells (in words) [10]: not effective; IC50 [10]: > 20 µg/mL
12 | N=c1oc2ccc(O)cc2cc1C(=O)Nc1ccc(O)cc1 [Compound 7T] | 4.5 (≈ 15.2 µM) |  |  |  | 4.2 (≈ 14.2 µM) | 3.2 (≈ 10.8 µM) | 3 (≈ 10.1 µM) | 
13 | N=c1oc2c(O)cccc2cc1C(=O)Nc1cccc(CO)c1 [Compound 9TABA] |  |  |  | 3 (≈ 9.67 µM) |  | 2.5 (≈ 8.06 µM) | 11 (≈ 35.4 µM) | potency relative to the hydroxylated parent compound (in words) ([8]; p60^c-src): not more potent; IC50 [1]: > 20 µg/mL; IC50 [3]: 64.5 µM
14 | N=c1oc2c(O)cccc2cc1C(=O)Nc1ccccc1O [Compound 9TO] |  | 1.2 (≈ 4.05 µM) | 4 (≈ 13.5 µM) | > 20 | 1.5 (≈ 5.06 µM) |  | 1.9 (≈ 6.41 µM) | inhibition of p60^c-src kinase (in words) [8]: relatively weak activity
15 | N=c1oc2ccc(O)cc2cc1C(=O)Nc1cccc(O)c1 [Compound 7TA] |  |  |  |  | 6.5 (≈ 21.9 µM) | 1.3 (≈ 4.39 µM) | 4.5 (≈ 15.2 µM) | IC50 [6]: > 33.8 µM
16 | N=c1oc2cc(O)ccc2cc1C(=O)Nc1ccccc1O [Compound 8TO] |  |  |  |  | 8 (≈ 27 µM) | 0.6 (≈ 2.03 µM) |  | 
17 | N=c1oc2cc(O)ccc2cc1C(=O)Nc1ccc(O)cc1 [Compound 8T] | 14 (≈ 47.3 µM) |  |  |  | 5 (≈ 16.9 µM) | 1.2 (≈ 4.05 µM) | 5 (≈ 16.9 µM) | 
18 | N=c1oc2c(O)c(O)ccc2cc1C(=O)Nc1ccccc1 [Compound 18AN] |  |  |  | > 20 | > 20 |  | 17 (≈ 57.4 µM) | inhibition of p60^c-src kinase (in words) [8]: inactive; inhibition of cancer cell growth (in words) [11]: less active
19 | N=c1oc2cc(O)cc(O)c2cc1C(=O)Nc1ccc(O)cc1 [Compound 19T] |  | 2 (≈ 6.4 µM) | 2.5 (≈ 8.01 µM) |  | 1 (≈ 3.2 µM) | 0.2 (≈ 0.64 µM) | 1 (≈ 3.2 µM) | fold more potent than the parent compound 25T ([8]; p60^c-src, versus 25T): 200 fold; IC50, p56^lyn [6]: 5 µg/mL (≈ 16 µM); inhibition of growth of human fibroblast cells (in words) [10]: not effective; IC50 [10]: > 20 µg/mL
20 | N=c1oc2ccccc2cc1C(=O)Nc1ccc(O)cc1 [Compound 25T, 3-(N-4-hydroxyphenyl)carbamoyl-2-iminochromene] | 10 (≈ 35.7 µM) |  |  |  | > 10 |  |  | inhibition of p60^c-src kinase (in words) [8]: poorly inhibits; also recorded: inactive; inhibition of cancer cell growth (in words) [11]: less active
21 | N=c1oc2c(O)c(O)ccc2cc1C(=O)Nc1ccccc1CO [Compound 18TOBA] |  | 5 (≈ 15.3 µM) |  | > 20 | 6 (≈ 18.4 µM) | 0.9 (≈ 2.76 µM) | > 20 | potency relative to the hydroxylated parent compound (in words) ([8]; p60^c-src): much more potent
22 | N=c1oc2c(O)cccc2cc1C(=O)Nc1cccc(O)c1 [Compound 9TA] |  | 0.62 (≈ 2.09 µM) | 20 (≈ 67.5 µM) |  | 10 (≈ 33.8 µM) | 0.035 (≈ 0.118 µM) | 6 (≈ 20.3 µM) | inhibition of p60^c-src kinase (in words) [8]: strong inhibitory effect; inhibition of cancer cell growth (in words) [11]: not as potent
23 | N=c1oc2c(O)c(O)ccc2cc1C(=O)Nc1ccccc1O [Compound 18TO] |  | 20 (≈ 64 µM) | 15 (≈ 48 µM) | > 20 | 2 (≈ 6.4 µM) | 12 (≈ 38.4 µM) | 2 (≈ 6.4 µM) | inhibition of p60^c-src kinase (in words) [8]: relatively weak activity
24 | N=c1oc2c(O)c(O)ccc2cc1C(=O)Nc1cccc(CO)c1 [Compound 18TABA] |  |  |  | > 20 | 2.5 (≈ 7.66 µM) | 5 (≈ 15.3 µM) | 2.5 (≈ 7.66 µM) | potency relative to the hydroxylated parent compound (in words) ([8]; p60^c-src): not more potent; IC50, p56^lyn [6]: 20 µg/mL (≈ 61.3 µM)

Reference: US5648378A, “2-iminochromene derivatives as inhibitors of protein tyrosine kinase” (Research Corporation Technologies, Inc., priority 1995, dated 1997)
